From the OligoGym collection come the findings set out here.

The target in one data set is SNHG14. Particulars: ASO.
A further data set concerns the target APOL1. The conditions noted are these: ASO.
Where [1] appears, read: Mouse Primary Neuronal Cell, 0.005 µM.

Values joined by “and” are separate entries in the source; they are usually repeats but may differ in a detail not shown here. Equal entries are not always repeated. After the bases stand the sugars from the 5' end (letter, count) and the backbone: PS all phosphorothioate, else s phosphorothioate and o phosphodiester by linkage. Methylation of C is not given here. e = 2'-O-(2-methoxyethyl) (MOE); l = locked nucleic acid (LNA); k = constrained ethyl (cEt); d = 2'-deoxy (DNA)

With “TCATTGAACAACTCTTC (sugars l4 d11 l2, PS)”, the target mRNA inhibition with SNHG14 (Human Neuronal Cell, 0.2 µM) was determined as 31%; in the data set with SNHG14 (Human Neuronal Cell, 1 µM), 17%.
With “TTACTCTTTGATTTCAT (sugars l3 d11 l3, PS)”, the target mRNA inhibition with SNHG14 (Human Neuronal Cell, 0.2 µM) was determined as 34%; with SNHG14 (Human Neuronal Cell, 1 µM) it was 34%.
As for “TTTTATACCTTTCTTTAACC (sugars ldlddddddddddlddllll, PS)”, the target mRNA inhibition with SNHG14 (Human Neuronal Cell, 7.5 µM) stood at 64%.
Regarding “ACTGTTTATACCCTTTCC (sugars l1 d3 l1 d11 l2, PS)”, the target mRNA inhibition with SNHG14 (Human Neuronal Cell, 7.5 µM) was 49%.
For “AACCAATTATACTTACA (sugars l4 d11 l2, PS)”, the target mRNA inhibition with SNHG14 (Human Neuronal Cell, 0.2 µM) came out at 40%; with SNHG14 (Human Neuronal Cell, 1 µM), 51%.
Take TTTATGTTTACTTCAT (sugars l3 d10 l3, PS): the target mRNA inhibition turned out to be 33% in the data set with SNHG14 (Human Neuronal Cell, 0.2 µM) and 47% with SNHG14 (Human Neuronal Cell, 1 µM).
With ACATGTCCCTTTATAT (sugars l3 d10 l3, PS), the target mRNA inhibition in the data set with SNHG14 (Human Neuronal Cell, 0.2 µM) was 1%; with SNHG14 (Human Neuronal Cell, 1 µM), -13%; with SNHG14 (Human Neuronal Cell, 5 µM), 6%; with SNHG14 (setting [1]), 88.2%.
As to “TACACTTAATTATACTTCCA (sugars l1 d2 l1 d13 l3, PS)”, the target mRNA inhibition in the data set with SNHG14 (Human Neuronal Cell, 7.5 µM) was 54%.
On the same count and under the same terms, the figure for “TGTTTCCATCTACTATTA (sugars ldlldlddddddddddll, PS)” is 60%.
On the same count and under the same terms, the figure for “GCTTTTAACCAGAGTGGCA (sugars l1 d16 l2, PS)” is 46%.
In the case of TTGATTCCACCATTAA (sugars l3 d10 l3, PS), the target mRNA inhibition came to 49% with SNHG14 (Human Neuronal Cell, 0.2 µM) and 28% with SNHG14 (Human Neuronal Cell, 1 µM).
With “TTTTTTTCTTACTATCTTCA (sugars ldddllddddddddddldll, PS)”, in the data set with SNHG14 (Human Neuronal Cell, 7.5 µM), the target mRNA inhibition was 50%.
Take “AACTGTTTATACCCTTT (sugars l4 d11 l2, PS)”: the target mRNA inhibition turned out to be 51% with SNHG14 (Human Neuronal Cell, 0.2 µM) and 55% in the data set with SNHG14 (Human Neuronal Cell, 1 µM).
As to “ATATTGATTCAATTCCC (sugars ldldldddddddldlll, PS)”, in the data set with SNHG14 (Human Neuronal Cell, 7.5 µM), the target mRNA inhibition worked out at 70%.
Same read-out and setting: the figure for “TTCTGTATACACCATCC (sugars ldldlddddddddddll, PS)” is 62%.
In the case of TGCTCACTAACTACAC (sugars l3 d10 l3, PS), the target mRNA inhibition was determined as 22% with SNHG14 (Human Neuronal Cell, 0.2 µM) and 9% with SNHG14 (Human Neuronal Cell, 1 µM).
On to ACATCTCATACTTGCT (sugars l2 d10 l4, PS), for which the target mRNA inhibition with SNHG14 (Human Neuronal Cell, 0.2 µM) was -10%; with SNHG14 (Human Neuronal Cell, 1 µM), -5%; with SNHG14 (Human Neuronal Cell, 5 µM) it was 8%; with SNHG14 (setting [1]) it was 96%.
For the sequence “ATCTTTCCATTTATTTCCA (sugars lddddldddddddddldll, PS)”, the target mRNA inhibition with SNHG14 (Human Neuronal Cell, 7.5 µM) was found to be 31%.
Still for that read-out and setting: under “CTTTTAACCAGAGTGGCATC (sugars l2 d16 l2, PS)” stands 57%.
With “TTGATTCAATTCCCTTA (sugars l2 d11 l4, PS)”, the target mRNA inhibition was found to be 60% in the data set with SNHG14 (Human Neuronal Cell, 0.2 µM) and 69% in the data set with SNHG14 (Human Neuronal Cell, 1 µM).
In the case of “GCTTTTAACCAGAGTGGCAT (sugars l1 d16 l3, PS)”, the target mRNA inhibition with SNHG14 (Human Neuronal Cell, 7.5 µM) was found to be 53%.
In the case of “ATTGATTCAATTCCCTT (sugars l2 d11 l4, PS)”, the target mRNA inhibition with SNHG14 (Human Neuronal Cell, 0.2 µM) came to 62%; with SNHG14 (Human Neuronal Cell, 1 µM), 69%.
As for “AGCTTTTAACCAGAGTGGC (sugars l1 d16 l2, PS)”, the target mRNA inhibition with SNHG14 (Human Neuronal Cell, 7.5 µM) was found to be 56%.
As for CCAAGATAATCATCAT (sugars l3 d10 l3, PS), the target mRNA inhibition worked out at 41% in the data set with SNHG14 (Human Neuronal Cell, 0.2 µM) and 42% with SNHG14 (Human Neuronal Cell, 1 µM).
For “TGTTTCCATCTACTATTA (sugars lddldddddddddlldll, PS)”, in the data set with SNHG14 (Human Neuronal Cell, 7.5 µM), the target mRNA inhibition came to 63%.
Still for that read-out and setting: the figure for “TTGATTCAATTCCCTTA (sugars lddllddddddllddll, PS)” is 55%; for “AGCTTTTAACCAGAGTGGCA (sugars l1 d17 l2, PS)” it is 64%; for “TTTATCAATATCTTCTCA (sugars lddddlddddddldllll, PS)” it is 61%.
The same measure, in the same setting: the figure for “GAAAATCTCAACTACCATT (sugars l5 d12 l2, PS)” is 60%.
With “GTTCAAAAGCAGCATT (sugars kkkddddkekeddddd, PS)”, in the data set with APOL1 (A431, 2 µM), the target mRNA inhibition is 85%.
As for TTGGTTCAAAAGCAGC (sugars k4 d9 k3, PS), the target mRNA inhibition with APOL1 (A431, 0.0625 µM) was 72%; in the data set with APOL1 (A431, 0.25 µM), 87%; in the data set with APOL1 (A431, 1 µM), 92%.
Consider “ATTCTATTAGAGGGCT (sugars kekddddeekkddddd, PS)”, for which, in the data set with APOL1 (A431, 2 µM), the target mRNA inhibition is 77%.
On the same count and under the same terms, under “TGTTATATTTGATCCT (sugars kkddddkekekddddd, PS)” stands 81%; under “CTATTAGAGGGCTAGT (sugars kkddddkekekkdddd, PS)”, 25%.
As for “GTTCTAACTCTTGGGC (sugars kkddddkdkdkddddd, PS)”, the target mRNA inhibition in the data set with APOL1 (A431, 0.0156 µM) is 3%; in the data set with APOL1 (A431, 0.0625 µM) it was 28%; with APOL1 (A431, 0.25 µM), 59%; with APOL1 (A431, 1 µM) it was 75%; in the data set with APOL1 (A431, 2 µM), 90%.
Take “TCAGATGGGTACTTCT (sugars k3 d4 k3 e1 d5, PS)”: in the data set with APOL1 (A431, 2 µM), the target mRNA inhibition came out at 82%.
With CCACTTGAGTCATTTG (sugars k4 d9 k3, PS), the target mRNA inhibition turned out to be 40% in the data set with APOL1 (A431, 0.0625 µM); 72% with APOL1 (A431, 0.25 µM); 90% with APOL1 (A431, 1 µM).
“TGAAGATTGGCTCTGG (sugars k2 d4 e3 k2 d5, PS)”: the target mRNA inhibition in the data set with APOL1 (A431, 2 µM) stood at 82%.
Same read-out and setting: under “GTTCTAACTCTTGGGC (sugars kkddddekekeddddd, PS)” stands 78%.
For the sequence ATGAACGCAATGCTGA (sugars k4 d9 k3, PS), the target mRNA inhibition in the data set with APOL1 (A431, 0.0625 µM) is 52%; with APOL1 (A431, 0.25 µM), 76%; with APOL1 (A431, 1 µM), 92%.
For the sequence “TTCTATTAGAGGGCTA (sugars kkdddddkekeddddd, PS)”, the target mRNA inhibition in the data set with APOL1 (A431, 0.0156 µM) came to 26%; with APOL1 (A431, 0.0625 µM), 56%; with APOL1 (A431, 0.25 µM) it was 81%; in the data set with APOL1 (A431, 1 µM), 92%; with APOL1 (A431, 2 µM) it was 94%.
Turning to CTATTAGAGGGCTAGT (sugars k4 d9 k3, PS), the target mRNA inhibition was 32% and 19% in the data set with APOL1 (A431, 0.0625 µM); 52% and 39% with APOL1 (A431, 0.25 µM); 71% and 51% with APOL1 (A431, 1 µM).
With “TTCTCATGGTACAGGA (sugars kkddddkdkdkddddd, PS)”, the target mRNA inhibition in the data set with APOL1 (A431, 2 µM) was 89%.
In the case of “GTTCAAAAGCAGCATT (sugars kdddddkekekddddd, PS)”, in the data set with APOL1 (A431, 2 µM), the target mRNA inhibition stood at 79%.
Still for that read-out and setting: under “TTATGAAATTATTGGT (sugars kkddddekekeddddd, PS)” stands 74%.
Still for that read-out and setting: the figure for “TATCAGATGGGTACTT (sugars k2 d4 e3 k2 d5, PS)” is 70%.
In the case of TTGTCTTGCAAGGTTG (sugars k4 d9 k3, PS), the target mRNA inhibition with APOL1 (A431, 0.0625 µM) came to 55%; with APOL1 (A431, 0.25 µM), 69%; with APOL1 (A431, 1 µM), 85%.
Take “AACGCAATGCTGACTT (sugars k2 d4 e3 k2 d5, PS)”: in the data set with APOL1 (A431, 2 µM), the target mRNA inhibition stood at 82%.
“TGTTCTAACTCTTGGG (sugars k2 d4 e3 k2 d5, PS)”: the target mRNA inhibition amounted to 24% with APOL1 (A431, 0.0156 µM); 61% in the data set with APOL1 (A431, 0.0625 µM); 84% with APOL1 (A431, 0.25 µM); 93% in the data set with APOL1 (A431, 1 µM); 97% with APOL1 (A431, 2 µM).
“TTATTCTCATGGTACA (sugars kkkddddkekekdddd, PS)”: the target mRNA inhibition in the data set with APOL1 (A431, 2 µM) worked out at 53%.
Still for that read-out and setting: under “TTGTAAGTGCAACCAA (sugars kkddddkdkdkddddd, PS)” stands 74%.
Take “GGCATTCAGAATTTCC (sugars kkkddddkekekdddd, PS)”: in the data set with APOL1 (A431, 2 µM), the target mRNA inhibition was determined as 20%.
Regarding “GAGTATTGTTTTTGTG (sugars kkdddddkekeddddd, PS)”, the target mRNA inhibition with APOL1 (A431, 0.0156 µM) came to 33%; in the data set with APOL1 (A431, 0.0625 µM), 75%; with APOL1 (A431, 0.25 µM) it was 91%; in the data set with APOL1 (A431, 1 µM), 96%; in the data set with APOL1 (A431, 2 µM), 96%.
Turning to “TTCTATTAGAGGGCTA (sugars k2 d4 e3 k2 d5, PS)”, in the data set with APOL1 (A431, 2 µM), the target mRNA inhibition amounted to 87%.
Same read-out and setting: the figure for “TTTAAACTCAGGTGAC (sugars kkddddkekekkdddd, PS)” is 16%; for “TCTATTAGAGGGCTAG (sugars k2 d4 e4 k2 d4, PS)” it is 44%; for “AATTCTATTAGAGGGC (sugars k3 d4 k3 e1 d5, PS)” it is 70%.
Turning to “GCTTTAAACTCAGGTG (sugars kkdddddkekeddddd, PS)”, the target mRNA inhibition with APOL1 (A431, 0.0156 µM) was 6%; with APOL1 (A431, 0.0625 µM), 35%; in the data set with APOL1 (A431, 0.25 µM), 67%; with APOL1 (A431, 1 µM), 85%; with APOL1 (A431, 2 µM), 91%.
On the same counts, the results for “CTTTATACCAGTGTCT (sugars kkdddddkekeddddd, PS)” are 14%, 41%, 74%, 92% and 97%.
The like results for “GTTATATTTGATCCTC (sugars kkddddekekeddddd, PS)” were, in that order, 8%, 37%, 69%, 64% and 96%.
“TTCTCATGGTACAGGA (sugars k2 d4 e4 k2 d4, PS)”: the target mRNA inhibition with APOL1 (A431, 2 µM) is 80%.
Same read-out and setting: the figure for “TGGGAATTATGGAATT (sugars kkkddddkekekdddd, PS)” is 56%; for “GTTATGAAATTATTGG (sugars kddddkekekeddddd, PS)” it is 77%.
Take “GTTATATTTGATCCTC (sugars k2 d4 e3 k2 d5, PS)”: the target mRNA inhibition is 2% with APOL1 (A431, 0.0156 µM); 31% with APOL1 (A431, 0.0625 µM); 67% with APOL1 (A431, 0.25 µM); 89% in the data set with APOL1 (A431, 1 µM); 93% with APOL1 (A431, 2 µM).
For “CACTTTATACCAGTGT (sugars k2 d4 e3 k2 d5, PS)”, the target mRNA inhibition with APOL1 (A431, 2 µM) amounted to 0%.
The same measure, in the same setting: under “CGTCAATATATTCTTT (sugars kkdddddkekeddddd, PS)” stands 87%.
